# Source: patent US9283280B2, “Compositions for drug administration” (Aegis Therapeutics, LLC, priority 2008, dated 2016)
# What was measured:
# [1] = cited from earlier work
# [2] = whole-swallowed tablet, cited from earlier work
# food intake = conditions: injection; less than usual, on average; cited from earlier work
# mucociliary surfaces = conditions: concentrations far below those used in intranasal formulations; cited from earlier work
# blood glucose = test: Intranasal insulin in […] TDM, anesthesia-induced hyperglycemia model; format: in vivo, mouse; conditions: intranasal insulin alone, minus […] TDM
# Source text: Intranasal administration of drugs or agents are possible in animal models e.g. mice and rats, although the nasal opening in is very small. In the experiments and results described herein, an anesthesia-induced hyperglycemia model was used (described in Examples above). Hyperglycemic animals were induced by an intraperitoneal (IP) injection containing xylazine-ketamine and blood glucose levels were monitored over a period of time. Immediately after the xylazine-ketamine injection, there was an increase in the blood glucose levels as shown in FIG. 2 (closed dark circles), and blood glucose levels were about 450 mg/dl. […] Blood glucose levels peak to about 482 mg/dl by 30 minutes after the xylazine-ketamine injection (FIG. 2). […] At about the 75 minute time point, blood glucose levels gradually returned to the baseline level in a normoglycemic mouse, or about 80-100 mg/dl.
compound,measurement,setting,value
"COc1ccc2[nH]cc(CCNC(C)=O)c2c1 [melatonin, 5-methoxy-N-acetyltryptamine]",bioavailability (estimated),[1]; oral administration,30-50%
same,absolute bioavailability,"[1]; oral tablets, normal healthy volunteers, DeMuro et al. (2000)",approximately 15%
"Cc1cc2c(s1)Nc1ccccc1N=C2N1CCN(C)CC1 [olanzapine, Olanzapine]",time to peak concentrations,[2]; oral dose,approximately 6 hours
same,dose metabolized by first pass before reaching systemic circulation,[2],approximately 40%
PYY: gut hormone fragment peptide PYY3-36,reduction of food eaten,food intake,30%
benzalkonium chloride,toxicity to mucociliary surfaces,mucociliary surfaces,significant disruption of the mucociliary surfaces
insulin alone: insulin (Humalog) given intranasally without TDM,return to normoglycemic levels,blood glucose,never return to normoglycemic levels
same,time mark at which blood glucose starts to decline,blood glucose,~120 min
